The results in this text go back to ChEMBL document CHEMBL4017513, “Structure-Activity Relationships of Potent, Targeted Covalent Inhibitors That Abolish Both the Transamidation and GTP Binding Activities of Human Tissue Transglutaminase” (J Med Chem, 2017).

Assay [1] has as its target T1, Protein-glutamine gamma-glutamyltransferase (Homo sapiens) (UniProt P21980).
T1 sequence (whole entry): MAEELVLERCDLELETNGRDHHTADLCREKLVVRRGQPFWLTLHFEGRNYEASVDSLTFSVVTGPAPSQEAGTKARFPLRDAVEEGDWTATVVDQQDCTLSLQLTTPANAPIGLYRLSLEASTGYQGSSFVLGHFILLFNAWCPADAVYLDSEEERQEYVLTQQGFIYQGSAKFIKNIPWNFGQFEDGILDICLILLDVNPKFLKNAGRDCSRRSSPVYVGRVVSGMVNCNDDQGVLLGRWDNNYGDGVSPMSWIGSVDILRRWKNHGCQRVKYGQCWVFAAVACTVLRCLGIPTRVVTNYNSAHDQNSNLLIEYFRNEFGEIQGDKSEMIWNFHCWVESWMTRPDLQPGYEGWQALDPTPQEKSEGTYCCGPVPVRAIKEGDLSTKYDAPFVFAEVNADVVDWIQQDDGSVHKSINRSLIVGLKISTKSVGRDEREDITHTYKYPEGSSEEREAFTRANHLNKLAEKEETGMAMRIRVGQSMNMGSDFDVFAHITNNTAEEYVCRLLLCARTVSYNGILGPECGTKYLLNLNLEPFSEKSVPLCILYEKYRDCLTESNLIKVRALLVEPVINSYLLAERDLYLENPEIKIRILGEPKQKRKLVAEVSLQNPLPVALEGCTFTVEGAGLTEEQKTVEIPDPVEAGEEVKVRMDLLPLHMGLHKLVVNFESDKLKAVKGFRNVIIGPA
Put plainly: (§1) Irreversible inhibition of human TG2 using AL5 as substrate by colorimetric assay.

The target in assay [2] is T2, Protein-glutamine gamma-glutamyltransferase (Homo sapiens, UniProt P21980).
T2 sequence (P21980 whole entry): T1 sequence (whole entry)
Described as §1.

The target in assay [3] is T1, Protein-glutamine gamma-glutamyltransferase (Homo sapiens). Kind of assay: Ratio of kinact to Ki for human TG2 by colorimetric assay.
Assay [4] concerns the target T3, Protein-glutamine gamma-glutamyltransferase K (Homo sapiens) (UniProt P22735).
T3 sequence (whole entry): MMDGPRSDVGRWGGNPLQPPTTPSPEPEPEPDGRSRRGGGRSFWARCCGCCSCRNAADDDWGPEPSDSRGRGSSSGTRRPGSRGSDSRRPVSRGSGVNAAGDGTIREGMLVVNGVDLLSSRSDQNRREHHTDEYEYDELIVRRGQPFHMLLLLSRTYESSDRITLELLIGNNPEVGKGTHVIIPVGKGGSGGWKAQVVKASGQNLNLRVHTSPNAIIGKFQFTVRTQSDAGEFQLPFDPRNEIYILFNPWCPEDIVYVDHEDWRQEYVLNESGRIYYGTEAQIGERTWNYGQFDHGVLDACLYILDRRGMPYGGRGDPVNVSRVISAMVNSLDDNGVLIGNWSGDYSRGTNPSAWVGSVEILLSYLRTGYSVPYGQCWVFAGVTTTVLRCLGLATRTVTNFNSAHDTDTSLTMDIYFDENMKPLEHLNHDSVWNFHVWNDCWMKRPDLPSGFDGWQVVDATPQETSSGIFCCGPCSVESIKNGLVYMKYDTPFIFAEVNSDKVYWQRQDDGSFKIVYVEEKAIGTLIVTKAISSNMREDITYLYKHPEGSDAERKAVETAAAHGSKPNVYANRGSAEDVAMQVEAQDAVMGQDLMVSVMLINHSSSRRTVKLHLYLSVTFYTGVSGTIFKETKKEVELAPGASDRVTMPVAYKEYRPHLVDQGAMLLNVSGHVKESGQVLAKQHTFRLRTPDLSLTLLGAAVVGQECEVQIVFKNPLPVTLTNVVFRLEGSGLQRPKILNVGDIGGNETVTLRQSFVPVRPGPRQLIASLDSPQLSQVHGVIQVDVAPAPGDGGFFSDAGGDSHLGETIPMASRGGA
Put plainly: Inactivation of human TG1 using AL5 as substrate by colorimetric assay.

Assay [5] concerns the target T4, Protein-glutamine gamma-glutamyltransferase E (Homo sapiens) (UniProt Q08188).
T4 sequence (whole entry): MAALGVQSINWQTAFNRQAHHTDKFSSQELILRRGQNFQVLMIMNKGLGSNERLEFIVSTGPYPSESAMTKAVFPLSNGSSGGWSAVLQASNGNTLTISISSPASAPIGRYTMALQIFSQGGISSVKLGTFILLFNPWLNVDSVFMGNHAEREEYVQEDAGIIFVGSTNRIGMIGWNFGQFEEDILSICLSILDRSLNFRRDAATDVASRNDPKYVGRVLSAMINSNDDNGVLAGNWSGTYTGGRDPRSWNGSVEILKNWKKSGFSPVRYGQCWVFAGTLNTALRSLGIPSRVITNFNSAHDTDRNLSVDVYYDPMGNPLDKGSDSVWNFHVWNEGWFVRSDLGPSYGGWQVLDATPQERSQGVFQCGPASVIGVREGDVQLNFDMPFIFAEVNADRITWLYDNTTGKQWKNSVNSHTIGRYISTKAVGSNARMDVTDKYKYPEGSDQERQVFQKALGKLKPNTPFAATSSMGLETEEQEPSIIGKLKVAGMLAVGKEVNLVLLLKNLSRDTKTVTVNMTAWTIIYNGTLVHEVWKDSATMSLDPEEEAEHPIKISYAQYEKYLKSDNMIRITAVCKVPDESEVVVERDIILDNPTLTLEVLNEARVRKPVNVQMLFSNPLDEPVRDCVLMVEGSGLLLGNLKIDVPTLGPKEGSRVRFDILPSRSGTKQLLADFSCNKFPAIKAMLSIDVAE
Put plainly: Inactivation of activated human TG3 assessed as rate constant of enzyme inactivation using FRET- quenched A101 as substrate by fluorescence assay.

The species entered for the next assay is Cavia porcellus. Kind of assay: Ratio of Kinact to Ki for guinea pig liver TG2.
Assay [6] is described as follows: Antimigratory activity in human ECS cells at 20 uM treated for 2 hrs measured after 30 hrs by DAPI staining-based inverted fluorescent microscopy relative vehicle-treated control. It is filed as functional.

Consider `C=CC(=O)NCCCC[C@H](NC(=O)OCc1ccccc1)C(=O)NCCOCCOCCNS(=O)(=O)c1cccc2c(N(C)C)cccc12`, for which the Kinact in assay [1] is 2.6 min⁻¹. In assay [2], the Ki was 33.9 µM. The Ratio amounted to 76.4 ×10³ /M/min in assay [3] and 1.4 ×10⁴ /M/min in the assay filed under Cavia porcellus. The figures for the K in assay [4] and in assay [5] were 78.9 ×10⁻³ /min and 1.01 ×10⁻³ /min, respectively. Moreover, in assay [6], the Activity is 50%.
